The source of these data is ChEMBL document CHEMBL3507680, “University of Dundee, Gates Library screen for HepG2 cell viability”.

SMILES strings stand for the structures. “And” between values parts separate entries of the source, which are not always exact repeats. Equal values may be shown once. Some results are limits rather than exact numbers.

The first series can be described thus: Human HepG2 cell viability dose-response assay. It counts as toxicity, cell-based.
Details: not given
On to `Cc1cc(C(=O)NCC(O)c2c(Cl)cccc2Cl)nn1C` (centres undefined), for which the BOTTOM was determined as 0, the HILLSLOPE turned out to be 0, the TOP turned out to be 0 and the pXC50 is less than 4.53.
On to `CCC(=O)Nc1ccc2c(c1)CN(C(=O)c1ccco1)CC2`, for which the BOTTOM was found to be 0, the HILLSLOPE is 0, the TOP is 0 and the pXC50 is given as less than 4.53.
`Cc1nc(CN2CCCC(N(C)Cc3cnn(C)c3)C2)no1` (centres undefined): the BOTTOM is recorded as 0, the HILLSLOPE is recorded as 0, the TOP worked out at 0 and the pXC50 was less than 4.53.
Take `COc1cc(OC)c(C2Nc3cc(Cl)ccc3C3=NCCN32)cc1OC` (centres undefined): the HILLSLOPE is 0.8757 and 0.9571; the TOP was 114.1 and 108.1; the pXC50 was 4.986 and 5.042.

The nature of a further series: Human HepG2 cell viability assay in 384 well format. It is filed as toxicity, cell-based. Details: dose 125 nL, time 70.5 hour; cytotoxicity at 70.5 h: concentration not given beside the values. The conditions noted are these: HepG2 cells, read-out: Inhibition.
With `Cc1cc(C(=O)NCC(O)c2c(Cl)cccc2Cl)nn1C` (centres undefined), the cytotoxicity at 70.5 h turned out to be 71.4%.
On the same count and under the same terms, the figure for `CCC(=O)Nc1ccc2c(c1)CN(C(=O)c1ccco1)CC2` is 66.1%; for `Cc1nc(CN2CCCC(N(C)Cc3cnn(C)c3)C2)no1` (centres undefined) it is 89.5%.
As to `COc1cc(OC)c(C2Nc3cc(Cl)ccc3C3=NCCN32)cc1OC` (centres undefined), the cytotoxicity at 70.5 h was 73.2%.
